Where two headings read alike, the source gives them in different places.
Legend:
[1] = Multi-component pharmacokinetics of AAs in rats after oral administration of AF and HAF extracts (HPLC-MS/MS of plasma); set-up: species or system Sprague–Dawley (SD) rats; conditions: Sprague-Dawley, rat, in vivo
Procedure: An aliquot (100 μl) of rat plasma was spiked with 10.0 μL IS, and vortexed with 300 μL acetic ether for 10 s before the supernatant was transferred into centrifuge tube. The extraction was repeated with 200 μL acetic ether. The combined organic layer was evaporated to dryness under a gentle stream of nitrogen at RT. The residue was resolved in 100 μL methanol and centrifuged at 15,800 × g for 10 min. The supernatant was used for HPLC-MS/MS analysis.
Chromatographic separation was performed by an Acquity C18 column (4.6 × 100 mm,3.5 μm) (Agilent Technologies, USA). The mobile phase was composed of water (containing 10 mM ammonium formate and formic acid, pH 3.0) (solvent A) and ACN (solvent B). The gradient profile of B was: 0–10 min, 35–38%; 10–11 min, 38– 60%; 11–17 min, 60–35%B; 17–18 min, 35%. The flow rate was kept at 0.5 mL/min. The column oven was set at 30 °C and the injection volume was 10 μL.
The mass spectrometer was operated in the positive ion electrospray mode with multiple reaction monitoring (MRM). The optimal MS parameters were set at the following parameters: a desolvation gas temperature of 450 °C, desolvation gas flow of 10 L/min, a nebulizer gas of 40 psi and a capillary voltage of 4000 V. The mass spectrometry conditions of AA I, AA II, AA C, AA D, 7-OH AA I and IS are summarized in Additional file 1: Table S1.
The rats were randomly divided into 6 groups (low, middle and high doses of AF and HAF; n = 6). After a week of acclimation, the animals were fasted for 12 h with free access to water. Then, AF and HAF extracts were administered to the rats. The extracts were suspended in 0.5% CMC–Na solution, and the oral doses (according to AA I in the extracts) were 3.0 mg/kg, 8.0 mg/kg and 15.0 mg/kg, respectively.
Blood samples were collected from the ocular vein using dried heparinized tubes at 0, 0.083, 0.17, 0.33, 0.50, 0.67, 0.83, 1, 2, 4, 6, 8, 10, 12 and 24 h from the start. The animals received fluid replacement (sterile isotonic saline) after every two samplings since the fifth collecting. The samples were then immediately centrifuged at 3100 × g for 10 min. The plasma obtained was frozen and stored at –20 °C until analysis.
All statistical analyses were performed using the SPSS 11.0 software (Chicago, USA). P values <0.05 were considered statistically significant. Pharmacokinetic analysis was performed using the proprietary DAS 3.0 software (Mathematical Pharmacology Professional Committee of China, Shanghai, China).
After the oral administration of AF and HAF extracts, rat plasma samples were prepared and analyzed as described above. Five main AAs can be detected in rat blood with the proposed HPLC-MS/MS method. The mean pharmacokinetic parameters of five AAs in AF and HAF are summarized in Tables 4, 5 and Additional files 5, 6, 7: Tables S4-S6. The maximum concentration (C max) was the experimentally-observed value. The other pharmacokinetic parameters of the five analytes were fitted by DAS 3.0 software.

[2] = Stability of AAs in rat plasma (QC samples, HPLC-MS/MS); type: in vitro ADME; conditions: n = 5; for Short-term stability (RSD/%): fresh rat plasma at room temperature for 24 h before sample preparation; for Post-preparation stability (RSD/%): prepared rat plasma samples at room temperature for 24 h; for Long-term stability (RSD/%): rat plasma stored at –20 °C for 14 days; for Freeze-thaw stability (RSD/%): rat plasma, three freeze-thaw cycles (–20 °C 24 h, thawed at room temperature)
Procedure: The QC samples were assayed under several different conditions to evaluate the stability of AAs in rat plasma. The freeze-thaw stability of the analyte was determined over three freeze-thaw cycles. In each freeze-thaw cycle, the samples were frozen and stored at –20 °C for 24 h, then thawed at room temperature. To evaluate the long-term stability of AAs, the plasma samples were stored at –20 °C for 14 days. For the short-term stability, fresh plasma samples were kept at room temperature for 24 h before the sample preparation. After keeping the samples at room temperature for 24 h, post-preparation stability was tested. Stability was evaluated by comparing the mean concentration of the stored samples with the mean concentration of those prepared freshly. The stability data were acceptable when the bias was within ±15% of the actual value.

[3] = 3 mg/kg, AF extract, low dose (3.0 mg/kg as AA I), analyte dose mg/kg: AA I 3.0, AA II 0.21, AA C 1.42, AA D 1.60, 7-OH AA I 2.33, n = 6
[4] = 3 mg/kg, HAF extract, low dose (3.0 mg/kg as AA I), analyte dose mg/kg: AA I 3.0, AA II 0.26, AA C 1.53, AA D 1.51, 7-OH AA I 2.48, n = 6
[5] = 8 mg/kg, AF extract, mid dose (8.0 mg/kg as AA I), analyte dose mg/kg: AA I 8.0, AA II 0.56, AA C 3.78, AA D 4.26, 7-OH AA I 6.22, n = 6
[6] = 8 mg/kg, HAF extract, mid dose (8.0 mg/kg as AA I), analyte dose mg/kg: AA I 8.0, AA II 0.69, AA C 4.09, AA D 4.03, 7-OH AA I 6.62, n = 6
[7] = 15 mg/kg, AF extract, high dose (15.0 mg/kg as AA I), analyte dose mg/kg: AA I 15.0, AA II 1.05, AA C 7.09, AA D 8.00, 7-OH AA I 11.66, n = 6
[8] = 15 mg/kg, HAF extract, high dose (15.0 mg/kg as AA I), analyte dose mg/kg: AA I 15.0, AA II 1.29, AA C 7.66, AA D 7.56, 7-OH AA I 12.41, n = 6
[9] = high QC conc ng/mL: AA I 1830, AA II 3200, AA C 2980, AA D 3680, 7-OH AA I 3280
[10] = low QC conc ng/mL: AA I 1.83, AA II 8.00, AA C 186.3, AA D 36.8, 7-OH AA I 82.0
[11] = middle QC conc ng/mL: AA I 457.5, AA II 400, AA C 372.5, AA D 460, 7-OH AA I 410

**Q.** What does the source list for COc1cc(O)cc2c1cc([N+](=O)[O-])c1c(C(=O)O)cc3c(c12)OCO3 [AA D]?
**A.** AUC(0-inf) [1, 3]: 194 ng·h/mL; Cmax [1, 3]: 78.5 ng/mL; Tmax [1, 3]: 0.56 h; CL/F ([1]; 3 mg/kg, AF extract, low dose (3.0 mg/kg as AA I), analyte dose mg/kg: AA I 3.0, AA II 0.21, AA C 1.42, AA D 1.60, 7-OH AA I 2.33, n = 6, read-out: CLz/F (converted)): 168 mL/min/kg; Vd/F ([1]; 3 mg/kg, AF extract, low dose (3.0 mg/kg as AA I), analyte dose mg/kg: AA I 3.0, AA II 0.21, AA C 1.42, AA D 1.60, 7-OH AA I 2.33, n = 6, read-out: Vz/F): 35.7 L/kg; half-life ([1]; 3 mg/kg, AF extract, low dose (3.0 mg/kg as AA I), analyte dose mg/kg: AA I 3.0, AA II 0.21, AA C 1.42, AA D 1.60, 7-OH AA I 2.33, n = 6, read-out: t 1/2z (converted)): 2.45 h; AUC(0-inf) [1, 4]: 179 ng·h/mL; Cmax [1, 4]: 58.6 ng/mL; Tmax [1, 4]: 0.78 h; CL/F ([1]; 3 mg/kg, HAF extract, low dose (3.0 mg/kg as AA I), analyte dose mg/kg: AA I 3.0, AA II 0.26, AA C 1.53, AA D 1.51, 7-OH AA I 2.48, n = 6, read-out: CLz/F (converted)): 158 mL/min/kg; Vd/F ([1]; 3 mg/kg, HAF extract, low dose (3.0 mg/kg as AA I), analyte dose mg/kg: AA I 3.0, AA II 0.26, AA C 1.53, AA D 1.51, 7-OH AA I 2.48, n = 6, read-out: Vz/F): 30.6 L/kg; half-life ([1]; 3 mg/kg, HAF extract, low dose (3.0 mg/kg as AA I), analyte dose mg/kg: AA I 3.0, AA II 0.26, AA C 1.53, AA D 1.51, 7-OH AA I 2.48, n = 6, read-out: t 1/2z (converted)): 2.05 h; AUC(0-inf) [1, 5]: 402 ng·h/mL; Cmax [1, 5]: 126 ng/mL; Tmax [1, 5]: 0.56 h; CL/F ([1]; 8 mg/kg, AF extract, mid dose (8.0 mg/kg as AA I), analyte dose mg/kg: AA I 8.0, AA II 0.56, AA C 3.78, AA D 4.26, 7-OH AA I 6.22, n = 6, read-out: CLz/F (converted)): 359 mL/min/kg; Vd/F ([1]; 8 mg/kg, AF extract, mid dose (8.0 mg/kg as AA I), analyte dose mg/kg: AA I 8.0, AA II 0.56, AA C 3.78, AA D 4.26, 7-OH AA I 6.22, n = 6, read-out: Vz/F): 75.7 L/kg; half-life ([1]; 8 mg/kg, AF extract, mid dose (8.0 mg/kg as AA I), analyte dose mg/kg: AA I 8.0, AA II 0.56, AA C 3.78, AA D 4.26, 7-OH AA I 6.22, n = 6, read-out: t 1/2z (converted)): 2.43 h; AUC(0-inf) [1, 6]: 323 ng·h/mL; Cmax [1, 6]: 89.2 ng/mL; Tmax [1, 6]: 0.75 h; CL/F ([1]; 8 mg/kg, HAF extract, mid dose (8.0 mg/kg as AA I), analyte dose mg/kg: AA I 8.0, AA II 0.69, AA C 4.09, AA D 4.03, 7-OH AA I 6.62, n = 6, read-out: CLz/F (converted)): 190 mL/min/kg; Vd/F ([1]; 8 mg/kg, HAF extract, mid dose (8.0 mg/kg as AA I), analyte dose mg/kg: AA I 8.0, AA II 0.69, AA C 4.09, AA D 4.03, 7-OH AA I 6.62, n = 6, read-out: Vz/F): 37.8 L/kg; half-life ([1]; 8 mg/kg, HAF extract, mid dose (8.0 mg/kg as AA I), analyte dose mg/kg: AA I 8.0, AA II 0.69, AA C 4.09, AA D 4.03, 7-OH AA I 6.62, n = 6, read-out: t 1/2z (converted)): 2.3 h; AUC(0-inf) [1, 7]: 960 ng·h/mL; Cmax [1, 7]: 155 ng/mL; Tmax [1, 7]: 0.64 h; CL/F ([1]; 15 mg/kg, AF extract, high dose (15.0 mg/kg as AA I), analyte dose mg/kg: AA I 15.0, AA II 1.05, AA C 7.09, AA D 8.00, 7-OH AA I 11.66, n = 6, read-out: CLz/F (converted)): 560 mL/min/kg; Vd/F ([1]; 15 mg/kg, AF extract, high dose (15.0 mg/kg as AA I), analyte dose mg/kg: AA I 15.0, AA II 1.05, AA C 7.09, AA D 8.00, 7-OH AA I 11.66, n = 6, read-out: Vz/F): 153 L/kg; half-life ([1]; 15 mg/kg, AF extract, high dose (15.0 mg/kg as AA I), analyte dose mg/kg: AA I 15.0, AA II 1.05, AA C 7.09, AA D 8.00, 7-OH AA I 11.66, n = 6, read-out: t 1/2z (converted)): 2.89 h; AUC(0-inf) [1, 8]: 590 ng·h/mL; Cmax [1, 8]: 148 ng/mL; Tmax [1, 8]: 0.63 h; CL/F ([1]; 15 mg/kg, HAF extract, high dose (15.0 mg/kg as AA I), analyte dose mg/kg: AA I 15.0, AA II 1.29, AA C 7.66, AA D 7.56, 7-OH AA I 12.41, n = 6, read-out: CLz/F (converted)): 206 mL/min/kg; Vd/F ([1]; 15 mg/kg, HAF extract, high dose (15.0 mg/kg as AA I), analyte dose mg/kg: AA I 15.0, AA II 1.29, AA C 7.66, AA D 7.56, 7-OH AA I 12.41, n = 6, read-out: Vz/F): 47.9 L/kg; half-life ([1]; 15 mg/kg, HAF extract, high dose (15.0 mg/kg as AA I), analyte dose mg/kg: AA I 15.0, AA II 1.29, AA C 7.66, AA D 7.56, 7-OH AA I 12.41, n = 6, read-out: t 1/2z (converted)): 2.4 h; Short-term stability (RSD/%) [2, 9]: 8.6%; Short-term stability (RSD/%) [2, 10]: 5.0%; Short-term stability (RSD/%) [2, 11]: 11.7%; Post-preparation stability (RSD/%) [2, 9]: 2.8%; Post-preparation stability (RSD/%) [2, 10]: 4.5%; Post-preparation stability (RSD/%) [2, 11]: 3.1%; Long-term stability (RSD/%) [2, 9]: 12.7%; Long-term stability (RSD/%) [2, 10]: 5.2%; Long-term stability (RSD/%) [2, 11]: 2.5%; Freeze-thaw stability (RSD/%) [2, 9]: 14.3%; Freeze-thaw stability (RSD/%) [2, 10]: 4.8%; Freeze-thaw stability (RSD/%) [2, 11]: 8.4%
